Assay results published in ChEMBL document CHEMBL1201862, “PubChem BioAssay data set” (2004).
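Briefly, cells in 96-well plates were exposed to five compound concentrations for 48 h, and endpoints were estimated by linear interpolation. The concentration for 50% growth inhibition is given as GI50.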 Calls of active or inactive are those of the source. No stated cut-off is given here; in the data, active = GI50 up to about 1.1 µM and inactive = higher.

What was measured:
Test in all cases: NCI-60 cell line screen, 48 h
786-0 = tested on: 786-0
A498 = tested on: A498
A549 = tested on: A549
ACHN = tested on: ACHN
BT-549 = tested on: BT-549
CAKI-1 = tested on: CAKI-1
CCRF-CEM = tested on: CCRF-CEM
COLO 205 = tested on: COLO 205
DU-145 = tested on: DU-145
EKVX = tested on: EKVX
HCC 2998 = tested on: HCC 2998
HCT-116 = tested on: HCT-116
HCT-15 = tested on: HCT-15
HL-60 = tested on: HL-60
HOP-62 = tested on: HOP-62
HOP-92 = tested on: HOP-92
HT-29 = tested on: HT-29
Hs-578T = tested on: Hs-578T
IGROV-1 = tested on: IGROV-1
K562 = tested on: K562
KM12 = tested on: KM12
LOX IMVI = tested on: LOX IMVI
M14 = tested on: M14
MCF7 = tested on: MCF7
MDA-MB-231 = tested on: MDA-MB-231
MDA-MB-435 = tested on: MDA-MB-435
MDA-N = tested on: MDA-N
MOLT-4 = tested on: MOLT-4
NCI-H226 = tested on: NCI-H226
NCI-H23 = tested on: NCI-H23
NCI-H460 = tested on: NCI-H460
NCI-H522 = tested on: NCI-H522
NCI/ADR-RES = tested on: NCI/ADR-RES
OVCAR-3 = tested on: OVCAR-3
OVCAR-4 = tested on: OVCAR-4
OVCAR-5 = tested on: OVCAR-5
OVCAR-8 = tested on: OVCAR-8
PC-3 = tested on: PC-3
RPMI-8226 = tested on: RPMI-8226
RXF 393 = tested on: RXF 393
SF-268 = tested on: SF-268
SF-295 = tested on: SF-295
SF-539 = tested on: SF-539
SK-MEL-28 = tested on: SK-MEL-28
SK-MEL-2 = tested on: SK-MEL-2
SK-MEL-5 = tested on: SK-MEL-5
SK-OV-3 = tested on: SK-OV-3
SN12C = tested on: SN12C
SNB-19 = tested on: SNB-19
SNB-75 = tested on: SNB-75
SR = tested on: SR
SW-620 = tested on: SW-620
TK-10 = tested on: TK-10
U-251 = tested on: U-251
UACC-257 = tested on: UACC-257
UACC-62 = tested on: UACC-62
UO-31 = tested on: UO-31
Malme-3M = tested on: Malme-3M

In the case of `O=C(/C=C\c1ccc(-c2ccccc2)cc1)c1cccs1`, the GI50 (786-0) is reported as 11.6 µM (inactive), the GI50 (A498) is reported as 8.67 µM (inactive) and the GI50 (A549) is reported as > 79.6 µM (inactive). For the same molecule, the GI50 (ACHN) was 32.3 µM (inactive), the GI50 (BT-549) was 15.6 µM (inactive) and the GI50 (CAKI-1) was 35.7 µM (inactive). The GI50 (CCRF-CEM) was 2.42 µM (inactive), the GI50 (COLO 205) was > 39.2 µM (inactive) and the GI50 (DU-145) was 5.56 µM (inactive). The GI50 (EKVX) was 53 µM (inactive), the GI50 (HCC 2998) was > 28.4 µM (inactive) and the GI50 (HCT-116) was 27.4 µM (inactive). For the same molecule, the GI50 (HCT-15) was 7.74 µM, the GI50 (HL-60) was 3.89 µM (inactive) and the GI50 (HOP-62) was 25.3 µM (inactive). The GI50 (HOP-92) was > 69.2 µM (inactive), the GI50 (HT-29) was 3.38 µM (inactive) and the GI50 (Hs-578T) was 9.59 µM (inactive). The GI50 (IGROV-1) was 29.4 µM (inactive), the GI50 (K562) was 3.7 µM (inactive) and the GI50 (KM12) was 4.42 µM (inactive). The GI50 (LOX IMVI) was 3.88 µM (inactive), the GI50 (M14) was > 100 µM (inactive) and the GI50 (MCF7) was 3.56 µM (inactive). For the same molecule, the GI50 (MDA-MB-231) was 48.5 µM (inactive), the GI50 (MDA-MB-435) was 17.5 µM (inactive) and the GI50 (MDA-N) was 7.89 µM (inactive). The GI50 (MOLT-4) was 3.1 µM (inactive), the GI50 (NCI-H226) was > 69.8 µM (inactive) and the GI50 (NCI-H23) was 22 µM (inactive). The GI50 (NCI-H460) was 56.4 µM (inactive), the GI50 (NCI-H522) was 3.87 µM (inactive) and the GI50 (NCI/ADR-RES) was 26.7 µM (inactive). The GI50 (OVCAR-3) was 9.29 µM (inactive), the GI50 (OVCAR-4) was > 54.2 µM (inactive) and the GI50 (OVCAR-5) was 45.2 µM (inactive). The GI50 (OVCAR-8) was 6.44 µM (inactive), the GI50 (PC-3) was > 100 µM (inactive) and the GI50 (RPMI-8226) was 3.23 µM (inactive). For the same molecule, the GI50 (RXF 393) was 10.9 µM (inactive), the GI50 (SF-268) was 22.5 µM (inactive) and the GI50 (SF-295) was 29.7 µM (inactive). For the same molecule, the GI50 (SF-539) was 7.18 µM (inactive), the GI50 (SK-MEL-28) was > 100 µM (inactive) and the GI50 (SK-MEL-2) was 39.4 µM (inactive). The GI50 (SK-MEL-5) was > 70 µM (inactive), the GI50 (SK-OV-3) was 64.9 µM (inactive) and the GI50 (SN12C) was 7.45 µM (inactive). The GI50 (SNB-19) was > 59.2 µM (inactive), the GI50 (SNB-75) was 28.6 µM (inactive) and the GI50 (SR) was 2.7 µM (inactive). The GI50 (SW-620) was 5.41 µM (inactive), the GI50 (TK-10) was 46.2 µM (inactive) and the GI50 (U-251) was 5.09 µM (inactive). The GI50 (UACC-257) was > 100 µM (inactive), the GI50 (UACC-62) was 16.4 µM (inactive) and the GI50 (UO-31) was 16.6 µM (inactive).

`C/C=C\C(CC(=O)NCCc1cn(C(=O)OCc2ccccc2)c2ccccc12)CC(=O)OC` (stereo not drawn) was tested, and the GI50 (786-0) was > 100 µM (inactive), the GI50 (A498) was > 100 µM (inactive) and the GI50 (A549) was 50.5 µM (inactive). The GI50 (ACHN) was > 100 µM (inactive), the GI50 (BT-549) was 60 µM (inactive) and the GI50 (CAKI-1) was > 100 µM (inactive). The GI50 (COLO 205) was 40.6 µM (inactive), the GI50 (DU-145) was > 100 µM (inactive) and the GI50 (EKVX) was 45.2 µM (inactive). For the same molecule, the GI50 (HCC 2998) was > 100 µM (inactive), the GI50 (HCT-116) was 91.4 µM (inactive) and the GI50 (HCT-15) was greater than 100 µM. For the same molecule, the GI50 (HOP-62) was > 100 µM (inactive), the GI50 (HOP-92) was 69 µM (inactive) and the GI50 (HT-29) was 48.5 µM (inactive). The GI50 (Hs-578T) was > 100 µM (inactive), the GI50 (IGROV-1) was 76.7 µM (inactive) and the GI50 (K562) was 71.1 µM (inactive). The GI50 (KM12) was 62.5 µM (inactive), the GI50 (M14) was 86.7 µM (inactive) and the GI50 (MCF7) was 46.6 µM (inactive). For the same molecule, the GI50 (MDA-MB-231) was > 100 µM (inactive), the GI50 (MDA-MB-435) was 42.3 µM (inactive) and the GI50 (MDA-N) was 79.1 µM (inactive). For the same molecule, the GI50 (MOLT-4) was 48 µM (inactive), the GI50 (Malme-3M) was > 100 µM (inactive) and the GI50 (NCI-H23) was 89.5 µM (inactive). For the same molecule, the GI50 (NCI-H460) was > 100 µM (inactive), the GI50 (NCI-H522) was 48.8 µM (inactive) and the GI50 (NCI/ADR-RES) was 41.8 µM (inactive). For the same molecule, the GI50 (OVCAR-3) was 69.7 µM (inactive), the GI50 (OVCAR-4) was 35.9 µM (inactive) and the GI50 (OVCAR-5) was > 100 µM (inactive). The GI50 (OVCAR-8) was > 100 µM (inactive), the GI50 (PC-3) was 50.2 µM (inactive) and the GI50 (RPMI-8226) was 58.7 µM (inactive). For the same molecule, the GI50 (RXF 393) was 56.4 µM (inactive), the GI50 (SF-268) was > 100 µM (inactive) and the GI50 (SF-295) was 57 µM (inactive). The GI50 (SK-MEL-28) was > 100 µM (inactive), the GI50 (SK-MEL-2) was > 100 µM (inactive) and the GI50 (SK-MEL-5) was 34.9 µM (inactive). For the same molecule, the GI50 (SK-OV-3) was > 100 µM (inactive), the GI50 (SNB-19) was 63.1 µM (inactive) and the GI50 (SNB-75) was > 100 µM (inactive). The GI50 (SW-620) was > 100 µM (inactive), the GI50 (TK-10) was > 100 µM (inactive) and the GI50 (U-251) was > 100 µM (inactive). For the same molecule, the GI50 (UACC-257) was 52.8 µM (inactive), the GI50 (UACC-62) was 90.4 µM (inactive) and the GI50 (UO-31) was 50.8 µM (inactive).

With `Cc1nc2sccn2c1C(=O)OCCOCCOCCOCCOC(=O)c1c(C)nc2sccn12` the GI50 (786-0) was > 100 µM (inactive), the GI50 (A498) was > 100 µM (inactive) and the GI50 (A549) was > 100 µM (inactive). For the same molecule, the GI50 (ACHN) was > 100 µM (inactive), the GI50 (BT-549) was 34.6 µM (inactive) and the GI50 (CAKI-1) was > 100 µM (inactive). The GI50 (COLO 205) was 86.7 µM (inactive), the GI50 (DU-145) was > 100 µM (inactive) and the GI50 (EKVX) was 32.1 µM (inactive). The GI50 (HCC 2998) was > 100 µM (inactive), the GI50 (HCT-116) was > 100 µM (inactive) and the GI50 (HCT-15) was greater than 100 µM. For the same molecule, the GI50 (HL-60) was 15.7 µM (inactive), the GI50 (HOP-62) was > 100 µM (inactive) and the GI50 (HOP-92) was > 100 µM (inactive). The GI50 (HT-29) was > 100 µM (inactive), the GI50 (Hs-578T) was > 100 µM (inactive) and the GI50 (IGROV-1) was > 100 µM (inactive). The GI50 (K562) was 35.5 µM (inactive), the GI50 (KM12) was 49.7 µM (inactive) and the GI50 (LOX IMVI) was 57.3 µM (inactive). For the same molecule, the GI50 (M14) was 43.4 µM (inactive), the GI50 (MCF7) was 61.5 µM (inactive) and the GI50 (MDA-MB-231) was > 100 µM (inactive). The GI50 (MDA-MB-435) was 45.4 µM (inactive), the GI50 (MDA-N) was 36.1 µM (inactive) and the GI50 (MOLT-4) was 18.2 µM (inactive). The GI50 (Malme-3M) was > 100 µM (inactive), the GI50 (NCI-H226) was 16 µM (inactive) and the GI50 (NCI-H23) was 19.5 µM (inactive). The GI50 (NCI-H460) was 80.7 µM (inactive), the GI50 (NCI-H522) was 48.8 µM (inactive) and the GI50 (NCI/ADR-RES) was 27.9 µM (inactive). The GI50 (OVCAR-3) was > 100 µM (inactive), the GI50 (OVCAR-4) was 71.8 µM (inactive) and the GI50 (OVCAR-5) was > 100 µM (inactive). The GI50 (OVCAR-8) was 39.6 µM (inactive), the GI50 (PC-3) was 63.2 µM (inactive) and the GI50 (RPMI-8226) was 52.7 µM (inactive). For the same molecule, the GI50 (RXF 393) was > 100 µM (inactive), the GI50 (SF-268) was > 100 µM (inactive) and the GI50 (SF-295) was 63.4 µM (inactive). For the same molecule, the GI50 (SF-539) was 77.4 µM (inactive), the GI50 (SK-MEL-28) was 90.2 µM (inactive) and the GI50 (SK-MEL-2) was 76.4 µM (inactive). The GI50 (SK-MEL-5) was 11.7 µM (inactive), the GI50 (SN12C) was > 100 µM (inactive) and the GI50 (SNB-19) was > 100 µM (inactive). For the same molecule, the GI50 (SR) was 45.9 µM (inactive), the GI50 (SW-620) was > 100 µM (inactive) and the GI50 (TK-10) was > 100 µM (inactive). The GI50 (U-251) was > 100 µM (inactive), the GI50 (UACC-257) was 16.5 µM (inactive) and the GI50 (UACC-62) was 38.6 µM (inactive). For the same molecule, the GI50 (UO-31) was 70.5 µM (inactive).
